“Also recorded” adds a separate entry of the source.
What was measured:
M. tuberculosis [1] = tested on: M. tuberculosis; design: species or system C57Bl/6 mice; details: mouse, in vivo
IL-1β = test: Mature IL-1β ELISA in mouse bone marrow derived primary macrophages; type: cell-based; details: alone or with MDP or BCG, caspase blockade with ZVAD-fmk
Procedure: C57Bl/6 mouse bone marrow derived primary macrophages were treated with SB 1A or SB 1B alone, MDP alone or in combination as indicated for 4 hrs. BCG was used for infection for 4 hrs and supernatants collected 18 hr later titrated for mature IL1β using ELISA. Macrophages were first treated with ZVAD-fmk (2 hrs) for caspase blockade followed by activation with SB 1A and SB 1B (4 hrs) and BCG infection (4 hrs). Cytokine was measured 18 hrs later.

RIG-I and NOD2 [2] = test: Induction of responder genes RIG-I and NOD2; type: cell-based
[3] = tested on: C57Bl/6 mouse bone marrow derived macrophages; type: cell-based
NOD2 = target: T1, NOD2 (Homo sapiens, UniProt Q9HC29); test: IRF3-luciferase assay in HEK 293 cells transfected with NOD2; type: cell-based; details: HEK 293 transfected with NOD2, pcDNA and IRF3-luciferase; 1 μM; 12 h
T1 construct: expressed in transfected cells; host or cells: HEK 293
Procedure: HEK 293 cells were transfected with NOD2, pcDNA and IRF3-luciferase. The cells were then incubated with ssRNA (0.5 mg/ml) or SMNH compounds (1 μM). Following 12 h incubation, Luciferase activity was measured as described previously. The luciferase assay results are presented as mean±S.D. from three independent experiments (detailed materials and methods employed in these assays, see: ref (28). The results are depicted in FIG. 2.

MHC-II = type: cell-based, mouse
M. tuberculosis [4] = tested on: M. tuberculosis; design: species or system C57Bl/6 mice; details: mouse, in vivo; remark: listed apart in the source
interferon-β (IFN-β) = test: IFN-β production from human lung epithelial A549 cells; type: cell-based
[5] = tested on: IRF3-luciferase reporter gene; test: IRF3-luciferase reporter induction in HLE A549 cells (primary assay for NOD2 activation); type: cell-based, human; details: 12 h incubation
Procedure: The evaluation of SMNH compounds for NOD2 activation was conducted by primary, secondary, and tertiary assays. In the primary assays, SMNH compounds were tested for the induction of IRF3 expression in HLE A549 cells, which are known to endogenously express NOD2. […] SB 44, a mixture of two isomers Rp and Sp, is a prodrug of SB 40. SB 1B—the Rp isomer of SB 44 and is shown as SB 44-1 in the FIGS. 1-2.
IRF3-luciferase transfected cells were incubated with either DMSO only (UT) or SMNH compounds (μM). Following 12 h incubation, luciferase activity was measured using Dual-Luciferase Reporter Assay System (Promega) according to the manufacturer's protocol. Transfection efficiency was normalized by measuring the expression of renilla Luciferase. Luciferase units (i.e., fold induction) were measured by standard methodology (mean±standard deviation; 3 independent experiments). The results are depicted in FIG. 1.

[6] = tested on: peripheral blood mononuclear cells (PBMCs); test: Multiplex assay for 28 cytokines in PBMCs; type: cell-based, human; details: up to 50 μM
RIG-I and NOD2 [7] = type: cell-based; details: receptor-deficient cells, exogenous RIG-I and NOD2
[8] = Procedure: The objectives of this study were to determine potential toxic effects of SB 44 following daily oral dose administration for 14 days, and to evaluate the genotoxicity of SB 44 as determined by micronucleus evaluation. Male and female Sprague-Dawley rats were administered SB 44 daily at doses of 50, 200 and 500 mg/kg/day for 14 consecutive days. […] Micronucleus evaluations were performed to determine the potential genotoxicity of SB 44. Necropsies were performed on Day 15 for rats in the main study group and on Day 28 for rats in the recovery group.
[9] = tested on: MDBK, Vero, and HFF cell lines; test: in vitro; details: cell line not specified (table footnote)
Procedure: (§1) SB 44 was subjected to cytotoxicity evaluation against a panel of cell lines including Madin-Darby bovine kidney (MDBK), Vero, and HFF (human foreskin fibroblasts) to determine their CC50. Standard Microculture Tetrazolium Assay (MTT) assays were performed in 96-well plates using MDBK, Vero, and HFF cell lines (obtained from American Type Cell Collection). Controls included the nucleoside analogs 3TC, AZT, and ddC, as well as media without drugs. SDS was used as a positive cytotoxic control. All prodrugs were tested in triplicate at concentrations of 100, 300, and 1000 μM. Following a 24-hour incubation of cells with the test substance, the MTT assay was carried out.
(§2) Standard MTT assays were performed in 96-well plates using the Promega CellTiter96 Non-radioactive Cell Proliferation Assay Kit in conjunction with a 96-well Plate Reader (ThermoMax, Molecular devices), and MDBK, Vero, and HFF cell lines (obtained from ATCC). Several controls were employed including the nucleoside analogs 3TC, AZT, and ddC, as well as, media without drugs. SDS was used as a positive cytotoxic control. The compounds were tested in triplicate at concentrations of 100, 300, and 1000 μM. Following a 24-hour incubation of cells with the test substance, the MTT assay was carried out.

PBMCs = type: cell-based
[10] = human liver S9 fractions
Procedure: SB 44 (10 μM) was incubated with a mix containing S9 fraction (pooled from human) (1 mg/ml), NADPH (1.3 mM) UDPGA (5 mM), Alamethicin (10 μg/ml) in 1 ml of 1×PBS buffer. S-(5′-adenosyl)-L-methionine iodide (0.1 mM), adenosine 3′-phosphate 5′-phosphosulfate lithium salt hydrate (0.1 mM) and acetyl CoA (1 mM). The metabolite samples were evaluated by HPLC and LC/MS analysis.

in vitro = details: bovine (MDBK), African green monkey (Vero), human (HFF)
Procedure: as §1, §2

T1 sequence (Q9HC29 whole entry, species assumed): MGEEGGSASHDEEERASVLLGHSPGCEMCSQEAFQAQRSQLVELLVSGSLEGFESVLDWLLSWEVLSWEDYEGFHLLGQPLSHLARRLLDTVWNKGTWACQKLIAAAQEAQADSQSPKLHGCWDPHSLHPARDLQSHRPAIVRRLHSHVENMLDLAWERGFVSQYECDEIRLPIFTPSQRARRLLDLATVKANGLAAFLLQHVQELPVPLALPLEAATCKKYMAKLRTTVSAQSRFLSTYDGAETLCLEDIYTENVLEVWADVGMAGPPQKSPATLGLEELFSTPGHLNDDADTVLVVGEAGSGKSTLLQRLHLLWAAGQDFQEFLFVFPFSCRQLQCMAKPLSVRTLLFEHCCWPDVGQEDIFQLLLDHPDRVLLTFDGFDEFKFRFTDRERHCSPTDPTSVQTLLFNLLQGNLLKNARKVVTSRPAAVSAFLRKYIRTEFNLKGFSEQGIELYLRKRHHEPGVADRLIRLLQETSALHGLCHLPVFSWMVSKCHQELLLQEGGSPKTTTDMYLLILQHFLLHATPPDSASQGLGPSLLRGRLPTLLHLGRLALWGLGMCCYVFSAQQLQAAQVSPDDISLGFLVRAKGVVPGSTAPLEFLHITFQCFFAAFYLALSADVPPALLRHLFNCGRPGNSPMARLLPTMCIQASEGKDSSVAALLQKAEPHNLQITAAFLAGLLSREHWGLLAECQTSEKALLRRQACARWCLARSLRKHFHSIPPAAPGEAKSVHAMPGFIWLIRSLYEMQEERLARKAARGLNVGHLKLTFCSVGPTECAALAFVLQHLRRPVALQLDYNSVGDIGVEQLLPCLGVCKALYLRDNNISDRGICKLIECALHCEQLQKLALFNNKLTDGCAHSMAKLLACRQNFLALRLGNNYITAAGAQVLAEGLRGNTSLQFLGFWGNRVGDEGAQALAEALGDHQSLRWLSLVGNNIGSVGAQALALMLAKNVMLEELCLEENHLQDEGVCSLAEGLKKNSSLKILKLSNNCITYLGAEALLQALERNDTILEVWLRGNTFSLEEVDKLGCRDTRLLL

## COC1C(OP(=O)(OCC2OC(n3cnc4c(N)ncnc43)CC2O)SCOC(=O)OC(C)C)C(CO)OC1n1ccc(=O)[nH]c1=O (stereo not drawn) [SB 1B]
M. tuberculosis [1]
  antigen specific CD8 / memory T cells in lungs of re-challenged mice: boost the magnitude of antigen specific memory T cells; also recorded: induces a robust expansion of antigen specific CD8 T cells
  protection against re-challenge of tuberculosis: protects twice as better than BCG; also recorded: induce protection against re-challenge of tuberculosis in mice
  recall response against re-challenge with tuberculosis: retain the ability to mount a better recall response
IL-1β
  induction of mature IL-1β: induce IL-1β only in combination with either MDP or intact BCG bacilli
RIG-I and NOD2 [2]
  induction of responder genes RIG-I and NOD2: induction of responder genes RIG-I and NOD2
[3]
  antigen presentation (Antigen-85B) in macrophages: enhance antigen presentation in vitro; also recorded: retain full activity
NOD2
  IRF3 activation mediated via NOD2: mediated via NOD2 activation
MHC-II
  surface expression of MHC-II: increase MHC-II in MΦs
M. tuberculosis [4]
  Mtb counts of lungs: reducing Mtb counts of lungs better than either BCG or MDP+BCG
  Mtb counts of spleens: better than BCG vaccine in reducing Mtb counts of spleens
  adjuvant efficacy with BCG vaccine against tuberculosis: more efficacious as an adjuvant than SB 44; also recorded: better than muramyl dipeptide (MDP) as adjuvants
  anti-TB T cell function of mice: dramatic increase in anti-TB T cell function of mice
  numbers of multi-functional T cells: enhances the numbers of multi-functional T cells compared to BCG vaccine
  tetramer specific CD8 T cells: comparable levels of tetramer specific CD8 T cells
interferon-β (IFN-β)
  production of IFN-β: results in production of IFN-β
[5]
  IRF3 activation (IRF3-luciferase): induced IRF3 activation

## COC1C(OP(=O)(S)OCC2OC(n3cnc4c(N)ncnc43)CC2O)C(CO)OC1n1ccc(=O)[nH]c1=O (mixture of isomers) [SB 40]
[3]
  antigen presentation (Antigen-85B) in macrophages: enhance antigen presentation in vitro
[6]
  cytokine induction in human PBMC cultures: did not cause cytokine induction
NOD2
  IRF3 activation mediated via NOD2: mediated via NOD2 activation
RIG-I and NOD2 [7]
  enhancement of ISG-56 expression over that induced by PolyI-PolyC: 2 fold
MHC-II
  surface expression of MHC-II: increase MHC-II in MΦs
M. tuberculosis [4]
  anti-TB T cell function of mice: dramatic increase in anti-TB T cell function of mice
[8]; Day 14, 500 mg/kg dose groups
  systemic exposure females versus males, largest difference: about twofold
[8]; SB 40 in plasma, each dose of SB 44
  Day 14 Cmax and AUClast values versus Day 1: higher than those on Day 1
[8]; SB 40 in plasma, male and female rats, Days 1 and 14
  dose relationship for Cmax and AUClast: nonlinear dose relationship
[9]
  CC50: > 1 mM
[5]
  IRF3 activation (IRF3-luciferase): induced IRF3 activation
PBMCs
  IFN production in the presence of BCG: modest augmentation of IFN production
[10]
  phase II conjugative reactions: no apparent evidence of any phase II conjugative reactions

## COC1[C@@H](OP(=O)(OC[C@H]2O[C@@H](n3cnc4c(N)ncnc43)C[C@H]2O)SCOC(=O)OC(C)C)[C@@H](CO)O[C@H]1n1ccc(=O)[nH]c1=O (stereo partly drawn) [Compound 3]
In vitro
  CC50 at 24 h: > 1 mM

Source: US10391166B2, “Short oligonucleotides as vaccine adjuvants and therapeutic agents” (priority 2013, dated 2019)
